{"source": "patent US6437103B1", "about": "“Fatty acid analogs for diagnosis of coronary artery disease” (Biostream Inc., priority 1999, dated 2002)", "origin": "cited, not measured here", "system": "myocardium", "details": "background statement citing Goodman et al. 1984; Liefhold and Eisenhut 1986", "data": [{"smiles": "O=C(O)CCCCCCCCCCCCCCc1ccc(I)cc1", "note": "[15-(p-iodophenyl)pentadecanoic acid]", "values": [{"measurement": "myocardial uptake", "result": "moderate"}]}]}
